From patent EP2664619B1, “Purine derivatives as tools for screening anti-Alzheimer compounds” (Manros Therapeutics, priority 2012, dated 2013)

Columns and labels:
N2a-APP695 cells = experiment: MTS cell viability assay in the same wells as the ELISA; settings: MTS assay, N2a-APP695 cells; for Toxicity: class symbol; for Toxicity (concentration in brackets): concentration above which toxic
Method: To measure cell viability, the MTS assay (CellTiter 96® AQueous One Solution Cell Proliferation Assay, Promega) was used in the same wells as the capture ELISA assay. 20µl of MTS reagent (3-(4,5-dimethylthiazol-2-yl)-5-(3-carboxymethoxyphenyl)-2-(4-sulfophenyl)-2H-tetrazolium) was added in each well containing 100µl of media and incubation was then proceeded for 3 hours (37°C, 5% CO2 and 95% humidity). Measurements were made on OD 490Δ630 nm (excitation and emission wavelengths) using a microELISA reader (BioTek Instrument, El 800, Gen 5 software).

Aβ42 production = experiment: Sandwich ELISA measurement of Aβ42 levels in supernatant of treated N2a-APP695 cells; format: cell-based, Mouse; settings: N2a-APP695 cells; for EC50: Mus musculus, 18h incubation, ELISA assay, read-out: EC50 (µM) at inducing Aβ42 production
Method: Mouse neuroblastoma cells (N2a cells) or N2a-APP695 cells (N2a cell line stably transfected with APP695, an amyloid precursor protein) were cultured in an essential medium composed of Dulbecco's minimal essential medium (DMEM) and of OptiMEM® (1:1, v/v) (Gibco®) containing 0.2 mg/mL Geniticin (Geneticin® Selective Antibiotic, Gibco®) and 5 % fetal bovine serum (FBS, Gibco®, EU approved origin) in a humidified, 5% CO2 incubator at 37°C. Routinely, cells were split without use of Trypsin every 4/5 days. They were first rinsed with PBS (Gibco) and detached from the plate bottom using 4 mL Versene (Gibco) at room temperature for 3-4 min. 8 mL of fresh medium were added to the cell suspension, and the mix was centrifuged for 3 min at 1,000 rpm. The cell pellet was resuspended in fresh medium before seeding (1/10 dilution) in new flasks.
The N2a-APP695 cells were seeded at 10.000 cells/well in a 96 well plate with modified media (0.5% FBS) and incubated overnight. Cells were treated with fresh media comprising different compounds according to the invention (equal quantity of DMSO sold by Sigma®). They were then incubated for 18h in a humidified, 5% CO2 incubator.
Purines according to the invention were added at various concentrations to N2a-APP695.
The plate was finally centrifuged to remove cell fragments before collecting supernatant samples for amyloids levels determination.
Then, Aβ38, Aβ40 and Aβ42 levels were measured in a sandwich ELISA (Enzyme-Linked ImmunoSorbent Assay) using a combination of monoclonal antibody 6E10 (mAb 6E10) (sold by Covance® under the reference SIG-39320) and biotinylated polyclonal Aβ38, Aβ40 or Aβ42 antibodies (provided by Dr. P.D. Mehta, IBR, Staten Island, USA).
A solution of 100 µl mAb 6E10 diluted in carbonate-bicarbonate buffer, pH 9.6, was coated in the wells of microtiter plates (Maxisorp™ sold by Nunc®) and incubated at 4°C overnight. The plates were then washed with PBST (PBS tablets sold by Gibco®) containing 0.05% Tween-20 (Sigma®), and blocked for 1 h with 1% BSA (Sigma®) in PBST (PBS tablets sold by Gibco®) containing 0.05 Tween-20 (Sigma®) to avoid nonspecific binding.
Following a washing step, samples were added and incubated for 2 hours at room temperature (RT) and then at 4°C overnight. Plates were then washed before incubation with biotinylated polyclonal antibody diluted in PBST (PBS tablets sold by Gibco®) containing 0.05 Tween-20 (Sigma®) + 0.5% BSA at room temperature for 75 minutes.
After a washing step, streptavidin-horseradish peroxidase conjugate (Streptavidin poly-HRP, Thermo Scientific Pierce®), diluted in PBS + 1% BSA, was added and incubation was carried out for 45 min at room temperature. After washing, 100 µl of o-phenylenediamine dihydrochloride (OPD tablets, Invitrogen®) diluted in citrate buffer pH 5.0 were added. The reaction was stopped after 15 min with the addition of 100 µl 1 N sulfuric acid.
A range of known concentrations of Aβ38, Aβ40 and Aβ42, ranging from 0.01 to 10 ng/mL for Aβ38 and Aβ42, and ranging from 0.001 to 10 ng/mL for Aβ40, were use as a reference scale to determine the concentrations of Aβ38, Aβ40 and Aβ42 obtained.
The optical density was finally measured at 490 nm in a microELISA reader (sold by BioTek Instrument, reference E1 800, Gen 5 software).
The EC50 of the molecules tested were thus calculated.

| SMILES | Toxicity (N2a-APP695 cells) | EC50 (Aβ42 production) [µM] | Toxicity (concentration in brackets) (N2a-APP695 cells) [µM] | fold (printed in the EC50 cell) (Aβ42 production; Aβ42 production) [fold] |
| --- | --- | --- | --- | --- |
| CCN(Cc1ccccc1)c1nc(N[C@@H](CO)C(C)C)nc2c1ncn2C1CCCC1 [Compound 15] | + | 0.5 |  |  |
| CC(C)n1cnc2c(N(C)Cc3ccccc3)nc(N)nc21 [Aftin-1, N6-benzyl-9-isopropyl-N6-methyl-purine-2,6-diamine] | + | 20 |  |  |
| CCCN(Cc1ccccc1)c1nc(N[C@H](CC)CO)nc2c1ncn2C(C)C [Compound 20] | + | 1.35 | > 12 |  |
| CC[C@H](CO)Nc1nc(N(C)Cc2ccc(C(=O)NCCOCCOCCOCCOCCOCCN)cc2)c2ncn(C(C)C)c2n1 [Compound 30] | - ("-" means that the tested compound is non toxic with a concentration higher than 100 µM) | > 100 |  |  |
| CC[C@H](CO)Nc1nc(OCc2ccccc2)c2ncn(C(C)C)c2n1 [Aftin-3] | - ("-" means that the tested compound is non toxic with a concentration higher than 100 µM) | 13 |  |  |
| CC[C@@H](CO)Nc1nc(N(C)c2ccccc2)c2ncn(C(C)C)c2n1 [Compound 26] | - ("-" means that the tested compound is non toxic with a concentration higher than 100 µM) | 17 |  |  |
| CC[C@H](CO)Nc1nc(N(C)Cc2ccc(-c3ccccc3)cc2)c2ncn(C(C)C)c2n1 [Compound 21] | + | 0.45 |  |  |
| CC[C@H](CO)Nc1nc(N(C)Cc2ccccc2)c2ncn(C(C)C)c2n1 [Aftin-4, N6-methyl-roscovitine] | + | 10 | > 31 |  |
| CC[C@H](CO)Nc1nc(N2CCc3ccccc32)c2ncn(C(C)C)c2n1 [Compound 19] | + | 8 | > 31 |  |
| CC[C@H](CO)Nc1nc(N(C)Cc2ccccc2)c2ncn(C3CCCC3)c2n1 [Compound 14] | + | 2.7 | > 20 |  |
| CCN(CC)CCNc1nc(N(CC)Cc2ccccc2)c2ncn(C3CCCC3)c2n1 [Compound 22] | + | 0.8 | > 12 |  |
| CC[C@H](CO)Nc1nc(N(CC)Cc2ccccc2)c2ncn(C(C)C)c2n1 [Compound 13] | + | 3.8 | > 31 |  |
| CC(C)n1cnc2c(OCc3ccccc3)nc(OCc3ccccc3)nc21 [Compound 46, 9-Iso-propyl-2,6-dibenzyloxypurine] | + | 3.5 | > 12 |  |
| CC[C@H](CO)Nc1nc(N(C)Cc2ccc(-c3ccccn3)cc2)c2ncn(C(C)C)c2n1 [Compound 16] | + | 3.2 | > 31 |  |
| CC[C@H](CO)Nc1nc(N(C)Cc2cccc(OC)c2)c2ncn(C(C)C)c2n1 [Compound 36] | + | 105 | > 100 |  |
| CN(Cc1ccccc1)c1nc(N)nc2[nH]cnc12 [Compound 1, reference compound] | - ("-" means that the tested compound is non toxic with a concentration higher than 100 µM) | 100 |  |  |
| CC[C@@H](CO)Nc1nc(OCc2ccccc2)c2ncn(C(C)C)c2n1 [Compound 32] | - ("-" means that the tested compound is non toxic with a concentration higher than 100 µM) | 21 |  |  |
| CC[C@H](CO)Nc1nc(N(C)c2ccc(OC)cc2)c2ncn(C(C)C)c2n1 [Compound 44, (2R)-2-[[9-isopropyl-6-[(4-methoxyphenyl)-methyl-amino]purin-2-yl]amino]butan-1-ol] | + | 4.5 | > 21 |  |

| SMILES | Toxicity (N2a-APP695 cells) | EC50 (Aβ42 production) [µM] | Toxicity (concentration in brackets) (N2a-APP695 cells) [µM] | fold (printed in the EC50 cell) (Aβ42 production; Aβ42 production) [fold] |
| --- | --- | --- | --- | --- |
| CC[C@@H](CO)Nc1nc(N(C)Cc2ccc(-c3ccccn3)cc2)c2ncn(C(C)C)c2n1 [Compound 28] | + | 2.8 | > 12 |  |
| CN(Cc1ccccc1)c1ncnc2c1ncn2C1CCCC1 [Compound 12] | + | 12 | > 31 |  |
| CC[C@H](CO)Nc1nc(N(C)Cc2ccc(F)cc2)c2ncn(C(C)C)c2n1 [Compound 38] | + | 55 | > 12 |  |
| CC(C)n1cnc2c(N(C)Cc3ccc(F)cc3)nc(NC3CCNCC3)nc21 [Compound 33] | + | 10 | > 12 | 2 |
| CC(C)n1cnc2c(N(C)c3ccccc3)nc(NCCO)nc21 [Compound 40] | - ("-" means that the tested compound is non toxic with a concentration higher than 100 µM) | > 150 |  |  |
| CC[C@H](CO)Nc1nc(N2CCc3ccccc3C2)c2ncn(C(C)C)c2n1 [Compound 24] | + | 3.5 | > 31 |  |
| CC[C@H](CO)Nc1nc(N(C)Cc2ccccc2)c2ncn(Cc3ccccc3)c2n1 [Compound 17] | + | 0.7 | > 12 |  |
| CC[C@H](CO)Nc1nc(NCc2ccccc2)c2ncn(C(C)C)c2n1 [Compound 2, reference compound] | - ("-" means that the tested compound is non toxic with a concentration higher than 100 µM) |  |  |  |
| CCC(CO)Nc1nc(N(C)c2ccc(F)cc2)c2ncn(C(C)C)c2n1 (stereo not shown) [Compound 34] | - ("-" means that the tested compound is non toxic with a concentration higher than 100 µM) | 30 |  |  |
| CC[C@H](CO)Nc1nc(SCc2ccccc2)c2ncn(C(C)C)c2n1 [Compound 47, (2R)-2-[(6-benzylsulfanyl-9-isopropyl-purin-2-yl)amino]butan-1-ol] | + | > 10 |  |  |
| CC[C@H](CO)Nc1nc(N(CC)c2ccccc2)c2ncn(C(C)C)c2n1 [Compound 42] | + | 25 | > 100 |  |
| CN(Cc1ccccc1)c1nc(N)nc2c1ncn2C1CCCC1 [Aftin-2, N6-Benzyl-9-cyclopentyl-N6-methyl-purine-2,6-diamine] | - ("-" means that the tested compound is non toxic with a concentration higher than 100 µM) | 11 |  |  |
| CC[C@H](CO)Nc1nc(N(Cc2ccccc2)C(C)C)c2ncn(C(C)C)c2n1 [Compound 23, (2R)-2-[[6-[benzyl(isopropyl)amino]-9-isopropylpurin-2-yl]amino]butan-1-ol] | + | 2.5 | > 12 |  |
| CC(C)n1cnc2c(N(C)Cc3ccc(-c4ccccn4)cc3)nc(NC[C@H](O)CO)nc21 [Compound 29] | - ("-" means that the tested compound is non toxic with a concentration higher than 100 µM) | 10 |  |  |
| CC[C@@H](CO)Nc1nc(N(C)Cc2ccc(F)cc2)c2ncn(C(C)C)c2n1 [Compound 37] | + | 52 | > 12 |  |
| CC[C@H](CO)Nc1nc(N(CC)Cc2ccccc2)c2ncn(Cc3ccccc3)c2n1 [Compound 18] | + | 1.3 | > 12 |  |
| CC(C)n1cnc2c(N(C)Cc3ccccc3)ncnc21 [Compound 9, N-benzyl-9-isopropyl-N-methyl-purin-6-amine] | - ("-" means that the tested compound is non toxic with a concentration higher than 100 µM) | 12 |  |  |
| CC(C)n1cnc2c(N(C)c3ccccc3)nc(N(CCO)CCO)nc21 [Compound 39] |  | > 150 |  |  |
